Test results published in ChEMBL document CHEMBL1157542, “Design and synthesis of potent and selective BACE-1 inhibitors” (J Med Chem, 2010).

Columns and labels:
Cathepsin D = Cathepsin D (Homo sapiens, UniProt P07339)
Description: Inhibition of human liver cathepsin D

Beta-secretase 1 = Beta-secretase 1 (Homo sapiens, UniProt P56817); assay: biochemical
Sequence of Beta-secretase 1 (P56817 whole entry): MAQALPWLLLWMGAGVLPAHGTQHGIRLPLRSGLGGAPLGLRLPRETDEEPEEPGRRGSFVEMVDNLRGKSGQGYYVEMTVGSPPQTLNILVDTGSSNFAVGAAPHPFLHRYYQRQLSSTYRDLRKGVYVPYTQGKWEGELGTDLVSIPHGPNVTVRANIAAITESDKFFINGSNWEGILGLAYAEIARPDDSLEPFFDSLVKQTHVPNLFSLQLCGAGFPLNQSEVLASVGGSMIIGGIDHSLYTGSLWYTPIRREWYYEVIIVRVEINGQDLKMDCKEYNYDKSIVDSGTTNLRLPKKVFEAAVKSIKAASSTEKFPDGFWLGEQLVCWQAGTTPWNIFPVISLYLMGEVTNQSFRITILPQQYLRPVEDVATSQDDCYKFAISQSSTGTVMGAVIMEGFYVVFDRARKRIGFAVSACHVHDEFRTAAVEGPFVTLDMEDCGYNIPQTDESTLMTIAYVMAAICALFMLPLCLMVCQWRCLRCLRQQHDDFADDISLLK
Description: Inhibition of human BACE1 expressed in Escherichia coli cells (BL21(DE3) by TRF assay

Sequence of Cathepsin D (P07339 65-162 limits assumed): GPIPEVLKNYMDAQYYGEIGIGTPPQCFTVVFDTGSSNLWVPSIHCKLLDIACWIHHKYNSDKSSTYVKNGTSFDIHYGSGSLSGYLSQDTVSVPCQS
Sequence of Cathepsin D (P07339 169-412 limits assumed): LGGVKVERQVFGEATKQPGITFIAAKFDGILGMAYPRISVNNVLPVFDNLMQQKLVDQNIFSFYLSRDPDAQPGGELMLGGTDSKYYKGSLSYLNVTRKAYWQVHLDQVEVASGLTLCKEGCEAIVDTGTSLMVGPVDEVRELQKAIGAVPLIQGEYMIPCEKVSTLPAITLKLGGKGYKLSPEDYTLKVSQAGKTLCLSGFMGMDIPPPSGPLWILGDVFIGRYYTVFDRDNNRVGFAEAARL

| Structure (SMILES) | Ki (Cathepsin D) [µM] | Ki (Beta-secretase 1) [µM] |
| --- | --- | --- |
| CO[C@H](C[C@H](O)[C@H](COc1cc(F)cc(F)c1)NC(=O)c1cc(C(=O)N[C@H](C)c2ccccc2)cc(N(C)CS(C)(=O)=O)c1)C(=O)Nc1ccc(F)cc1 | > 5 | 0.1 |
| CO[C@H](C[C@H](O)[C@H](COCc1cc(F)cc(F)c1)NC(=O)c1cc(C(=O)N[C@H](C)c2ccccc2)cc(N(C)CS(C)(=O)=O)c1)C(=O)N[C@H](C(=O)NCc1ccccc1)C(C)C | – | 0.08 |
| CO[C@H](C[C@H](O)[C@H](COc1cc(F)cc(F)c1)NC(=O)c1cc(C(=O)N[C@H](C)c2ccccc2)cc(N(C)CS(C)(=O)=O)c1)C(=O)NCC(C)C | > 5 | 0.4 |
| CO[C@H](C[C@H](O)[C@H](COc1cc(F)cc(F)c1)NC(=O)c1cc(C(=O)N[C@H](C)c2ccccc2)cc(N(C)CS(C)(=O)=O)c1)C(=O)Nc1ccccc1 | > 5 | 0.2 |
| CCCN(CCC)C(=O)c1cccc(C(=O)N[C@@H](COCc2cc(F)cc(F)c2)[C@@H](O)C[C@@H](OC)C(=O)NC2CC2)c1 | – | > 10 |
| CO[C@H](C[C@H](O)[C@H](COc1cc(F)cc(F)c1)NC(=O)c1cc(C(=O)N[C@H](C)c2ccccc2)cc(N(C)CS(C)(=O)=O)c1)C(=O)NC1CC1 | > 5 | 1.8 |
| CCCN(CCC)C(=O)c1cccc(C(=O)N[C@@H](COc2cc(F)cc(F)c2)[C@@H](O)C[C@@H](OC)C(=O)NC2CC2)c1 | – | 0.22 |
| CO[C@H](C[C@H](O)[C@H](COc1cc(F)cc(F)c1)NC(=O)c1cc(C(=O)N[C@H](C)c2ccccc2)cc(N(C)CS(C)(=O)=O)c1)C(=O)NCc1ccccc1 | > 5 | 1.4 |

The next compounds have a lower Ki (Beta-secretase 1) than those just listed; values first:

| Ki (Cathepsin D) [µM] | Ki (Beta-secretase 1) [µM] | Structure (SMILES) |
| --- | --- | --- |
| 0.84 | 0.075 | CO[C@H](C[C@H](O)[C@H](COc1ccc(Br)cc1)NC(=O)c1cc(C(=O)N[C@H](C)c2ccccc2)cc(N(C)CS(C)(=O)=O)c1)C(=O)N[C@H](C(=O)NCc1ccccc1)C(C)C |
| – | 0.06 | CO[C@H](C[C@H](O)[C@H](COCc1ccc(Br)cc1)NC(=O)c1cc(C(=O)N[C@H](C)c2ccccc2)cc(N(C)CS(C)(=O)=O)c1)C(=O)N[C@H](C(=O)NCc1ccccc1)C(C)C |
| 0.46 | 0.009 | CO[C@H](C[C@H](O)[C@H](COc1ccccc1)NC(=O)c1cc(C(=O)N[C@H](C)c2ccccc2)cc(N(C)CS(C)(=O)=O)c1)C(=O)N[C@H](C(=O)NCc1ccccc1)C(C)C |
| 1.1 | < 0.001 | CO[C@H](C[C@H](O)[C@H](COc1cc(F)cc(F)c1)NC(=O)c1cc(C(=O)N[C@H](C)c2ccccc2)cc(N(C)CS(C)(=O)=O)c1)C(=O)N[C@H](C(=O)NCc1ccccc1)C(C)C |
